# Laboratory results from ChEMBL document CHEMBL1275274, “Direct renin inhibitors as a new therapy for hypertension” (J Med Chem, 2010).
# Positions count from the first letter of the chain named.
# Tests used:
# Renin [1] = biological target: T1, Renin (Homo sapiens, UniProt P00797); assay: Inhibition of human recombinant renin in buffer
# T1 sequence (P00797 whole entry): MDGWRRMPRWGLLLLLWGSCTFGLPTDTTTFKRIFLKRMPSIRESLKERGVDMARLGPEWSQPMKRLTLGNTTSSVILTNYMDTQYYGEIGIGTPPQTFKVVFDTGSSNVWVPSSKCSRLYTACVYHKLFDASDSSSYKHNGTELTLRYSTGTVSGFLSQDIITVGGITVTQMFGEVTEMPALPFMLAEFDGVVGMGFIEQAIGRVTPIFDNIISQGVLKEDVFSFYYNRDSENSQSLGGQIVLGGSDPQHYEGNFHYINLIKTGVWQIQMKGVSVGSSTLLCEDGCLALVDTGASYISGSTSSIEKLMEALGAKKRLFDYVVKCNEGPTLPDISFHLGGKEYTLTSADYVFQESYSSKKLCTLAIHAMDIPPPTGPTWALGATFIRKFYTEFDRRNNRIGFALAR
# [2] = Tmax in Wistar rat; assay type: ADME, organism-based; details: in vivo
# [3] = Distribution coefficient, log D of the compound; assay type: physicochemical; details: octanol/water
# [4] = Oral bioavailability in rat; assay type: ADME, organism-based; details: in vivo
# [5] = Oral bioavailability in Wistar rat; assay type: ADME, organism-based; details: in vivo
# [6] = Elimination half life in Wistar rat; assay type: ADME, organism-based; details: in vivo, read-out: beta t1/2 (converted)
# Renin [7] = biological target: T1, Renin; assay type: cell-free, Plasma
# Renin [8] = biological target: T1, Renin; assay: Binding affinity to human recombinant renin by isothermal titration calorimetry
# Renin [9] = biological target: T1, Renin; assay: Inhibition of renin in human plasma; assay type: cell-free
# Renin [10] = biological target: T2, Renin (Macaca mulatta, UniProt Q6DLW5); assay: Inhibition of renin in monkey plasma
# T2 sequence (Q6DLW5 whole entry): T1 sequence (P00797 whole entry) with T68A, I214L, S235A, Q270P, R406H
# Renin [11] = biological target: T1, Renin; assay: Inhibition of renin in pH 7.4 buffer
# [12] = Aqueous solubility of the compound at pH 6.6 buffer; assay type: physicochemical
# [13] = Partition coefficient, log P of the compound at pH 7.4; assay type: physicochemical; details: octanol/water
# [14] = (§1) Oral bioavailability in dog; assay type: ADME, organism-based, Canis lupus familiaris; details: in vivo
# Callithrix jacchus = assay: Oral bioavailability in marmoset; assay type: ADME, organism-based; details: in vivo
# Renin-1 = biological target: T3, Renin-1 (Mus musculus, UniProt P06281); assay: Inhibition of mouse renin
# T3 sequence (P06281 whole entry): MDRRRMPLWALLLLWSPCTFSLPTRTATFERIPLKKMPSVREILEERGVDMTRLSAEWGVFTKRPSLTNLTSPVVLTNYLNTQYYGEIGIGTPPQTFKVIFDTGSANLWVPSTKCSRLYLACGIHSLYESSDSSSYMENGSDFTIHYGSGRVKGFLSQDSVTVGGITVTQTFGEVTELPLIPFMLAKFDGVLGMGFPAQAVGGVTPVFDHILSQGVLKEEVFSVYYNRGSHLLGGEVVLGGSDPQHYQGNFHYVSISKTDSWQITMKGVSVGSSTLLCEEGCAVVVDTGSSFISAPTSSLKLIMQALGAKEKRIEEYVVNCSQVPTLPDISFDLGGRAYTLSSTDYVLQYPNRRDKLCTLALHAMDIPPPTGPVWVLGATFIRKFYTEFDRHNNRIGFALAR
# Canis familiaris = assay: as §1; assay type: ADME, organism-based, Canis lupus familiaris; details: in vivo
# [15] = Competitive inhibition of pig pepsin at pH 5; parameters: species or system Sus scrofa
# [16] = biological target: Voltage-gated inwardly rectifying potassium channel KCNH2 (Homo sapiens, UniProt Q12809); assay: Inhibition of human ERG
# [17] = Oral bioavailability in rhesus monkey; assay type: ADME, organism-based, Macaca mulatta; details: in vivo
# Cathepsin E = biological target: T4, Cathepsin E (Homo sapiens, UniProt P14091); assay: Inhibition of cathepsin E
# T4 sequence (P14091 whole entry): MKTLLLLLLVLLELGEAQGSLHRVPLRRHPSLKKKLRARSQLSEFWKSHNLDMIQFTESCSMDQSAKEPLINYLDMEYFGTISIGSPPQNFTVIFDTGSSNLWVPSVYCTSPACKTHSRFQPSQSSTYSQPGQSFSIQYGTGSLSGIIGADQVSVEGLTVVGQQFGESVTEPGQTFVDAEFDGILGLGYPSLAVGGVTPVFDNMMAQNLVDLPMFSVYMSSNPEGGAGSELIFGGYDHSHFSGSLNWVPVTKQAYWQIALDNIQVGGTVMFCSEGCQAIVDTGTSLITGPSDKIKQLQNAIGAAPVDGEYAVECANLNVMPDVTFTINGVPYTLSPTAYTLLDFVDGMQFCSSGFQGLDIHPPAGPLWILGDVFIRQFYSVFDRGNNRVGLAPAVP
# [18] = Elimination half life in dog; assay type: ADME, organism-based, Canis lupus familiaris; details: in vivo, read-out: beta t1/2 (converted)
# Cathepsin D = Cathepsin D (Homo sapiens, UniProt P07339); assay: Inhibition of cathepsin D
# [19] = Oral bioavailability in monkey; assay type: ADME, organism-based, Macaca mulatta; details: rhesus monkey, in vivo
# Cytochrome P450 3A4 = Cytochrome P450 3A4 (Homo sapiens, UniProt P08684); assay: Inhibition of CYP3A4; assay type: ADME
# [20] = Elimination half life in rhesus monkey; assay type: ADME, organism-based, Macaca mulatta; details: in vivo, read-out: beta t1/2 (converted)
# [21] = Inhibition of Cytochrome P450; assay type: ADME
# Voltage-gated inwardly rectifying potassium channel KCNH2, sequence (Q12809 whole entry): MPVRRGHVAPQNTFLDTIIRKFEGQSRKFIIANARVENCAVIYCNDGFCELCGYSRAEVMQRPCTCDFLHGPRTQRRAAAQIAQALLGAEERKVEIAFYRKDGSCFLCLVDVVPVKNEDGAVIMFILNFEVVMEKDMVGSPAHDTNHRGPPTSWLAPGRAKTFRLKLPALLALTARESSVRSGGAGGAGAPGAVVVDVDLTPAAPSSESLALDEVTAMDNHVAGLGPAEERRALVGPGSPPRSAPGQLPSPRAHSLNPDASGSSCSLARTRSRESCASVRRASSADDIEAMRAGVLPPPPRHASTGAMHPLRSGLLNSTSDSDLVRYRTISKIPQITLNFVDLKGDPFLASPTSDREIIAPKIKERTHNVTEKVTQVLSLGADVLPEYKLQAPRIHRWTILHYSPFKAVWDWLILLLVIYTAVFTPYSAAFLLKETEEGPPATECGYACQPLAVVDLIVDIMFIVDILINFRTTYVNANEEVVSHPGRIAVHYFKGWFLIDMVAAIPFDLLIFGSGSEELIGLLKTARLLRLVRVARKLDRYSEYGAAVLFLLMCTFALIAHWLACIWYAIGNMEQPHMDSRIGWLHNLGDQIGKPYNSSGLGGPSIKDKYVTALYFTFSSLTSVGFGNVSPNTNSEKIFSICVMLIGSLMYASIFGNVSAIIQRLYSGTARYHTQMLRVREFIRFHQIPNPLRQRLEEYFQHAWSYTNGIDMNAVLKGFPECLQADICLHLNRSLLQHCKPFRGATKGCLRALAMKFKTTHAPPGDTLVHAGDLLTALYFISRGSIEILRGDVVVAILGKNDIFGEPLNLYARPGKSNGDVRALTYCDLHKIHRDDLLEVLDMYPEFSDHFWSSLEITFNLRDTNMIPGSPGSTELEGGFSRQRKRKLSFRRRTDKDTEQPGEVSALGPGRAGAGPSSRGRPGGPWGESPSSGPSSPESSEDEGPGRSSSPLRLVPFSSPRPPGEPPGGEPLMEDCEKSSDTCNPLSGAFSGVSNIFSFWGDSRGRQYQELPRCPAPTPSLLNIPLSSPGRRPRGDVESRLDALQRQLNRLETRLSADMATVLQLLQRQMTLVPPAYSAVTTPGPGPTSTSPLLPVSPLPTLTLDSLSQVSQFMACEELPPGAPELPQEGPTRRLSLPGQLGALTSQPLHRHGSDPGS
# Cathepsin D, sequence (P07339 65-162 limits assumed): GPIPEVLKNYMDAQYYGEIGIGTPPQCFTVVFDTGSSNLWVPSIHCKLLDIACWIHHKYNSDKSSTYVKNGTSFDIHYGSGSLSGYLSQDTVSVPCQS
# Cathepsin D, sequence (P07339 169-412 limits assumed): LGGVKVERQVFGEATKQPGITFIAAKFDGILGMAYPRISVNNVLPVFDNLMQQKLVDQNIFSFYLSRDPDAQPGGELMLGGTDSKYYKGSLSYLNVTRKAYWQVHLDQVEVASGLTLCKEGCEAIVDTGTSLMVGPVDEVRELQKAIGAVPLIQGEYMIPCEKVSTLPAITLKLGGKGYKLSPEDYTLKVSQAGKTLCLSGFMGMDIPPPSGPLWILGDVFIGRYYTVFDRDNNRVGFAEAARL
# Cytochrome P450 3A4, sequence (P08684 whole entry): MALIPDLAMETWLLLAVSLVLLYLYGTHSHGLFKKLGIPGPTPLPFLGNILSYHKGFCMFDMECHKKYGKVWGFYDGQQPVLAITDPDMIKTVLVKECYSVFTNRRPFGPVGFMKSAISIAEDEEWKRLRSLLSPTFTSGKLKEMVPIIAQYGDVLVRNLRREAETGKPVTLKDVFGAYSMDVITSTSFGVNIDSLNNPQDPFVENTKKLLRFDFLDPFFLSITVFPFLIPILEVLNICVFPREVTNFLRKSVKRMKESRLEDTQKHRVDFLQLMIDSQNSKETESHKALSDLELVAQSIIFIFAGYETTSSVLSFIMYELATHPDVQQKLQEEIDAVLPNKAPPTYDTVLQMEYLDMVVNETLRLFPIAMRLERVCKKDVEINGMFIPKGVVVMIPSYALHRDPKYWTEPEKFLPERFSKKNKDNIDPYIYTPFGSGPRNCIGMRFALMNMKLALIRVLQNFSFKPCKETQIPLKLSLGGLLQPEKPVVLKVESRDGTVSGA
smiles,measurement,setting,value
Cc1cc(Cl)c(OCCOc2ccc(C3=C(C(=O)N(Cc4cccc(C)c4C)C4CC4)[C@H]4CNC[C@@H](C3)N4)cc2)c(Cl)c1,IC50,Renin [1],0.2 nM
same,Tmax,[2],10 h
same,logD,[3],> 4.9
same,bioavailability,[4],24%
same,bioavailability,[5],24%
same,half-life,[6],6.6 h
same,IC50,Renin [7],19 nM
CCCCNC(=O)[C@H](C)C[C@H](O)[C@@H](N)CC(C)(C)CC(=O)N1C[C@H](C(=O)OC)Cc2ccccc21,IC50,Renin [1],0.8 nM
CCc1nc(N)nc(NCCNS(=O)(=O)c2ccc3ccccc3c2)c1-c1ccc2c(c1)N(CCCOC)C(=O)C(C)(C)O2,Kd,Renin [8],79 nM
COC[C@@H]1CNC[C@H](OCc2ccc3ccccc3c2)[C@H]1c1ccc(COC(=O)c2ccccc2Cl)cc1,IC50,Renin [1],2 nM
Brc1ccc([C@H]2CCNC[C@@H]2OCc2ccc3ccccc3c2)cc1,IC50,Renin [1],5000 nM
CCCCNC(=O)[C@@H](NC[C@@H]1CCCCOc2ccccc2C[C@H](NC(=O)OC(C)(C)C)C(=O)N[C@@H](Cc2cnc[nH]2)C(=O)N1)C(C)C,IC50,Renin [9],20 nM
C=CC[C@H](NC(=O)CNS(=O)(=O)N1CCOCC1)C(=O)N[C@@H](CC1CC=C(c2cccc3ccccc23)CC1)[C@@H](O)[C@@H](O)CC(C)C (stereo not given in full),IC50,Renin [10],11 nM
COCCCCOc1ccccc1C(=O)NC[C@@H](C[C@H](N)[C@@H](O)C[C@H](C(=O)NCCC1CCN(C(C)=O)CC1)C(C)C)C(C)C,IC50,Renin [7],0.3 nM
CCC(C)C[C@H](NC(=O)[C@@H](NC[C@@H](O)[C@@H](N)CCCc1ccc(-c2ccccc2)cc1)C(C)C)C(=O)NCCCc1ccccc1 (stereo not given in full),IC50,Renin [11],4 nM
COc1ccccc1COCCCOc1ccc(C2=C(C(=O)N(Cc3ccnc(OC)c3C)C3CC3)[C@H]3CNC[C@@H](C2)N3)cc1,IC50,Renin [1],1.4 nM
same,IC50,Renin [7],18 nM
COc1ccccc1COCCCOc1ccc([C@H]2CCNC[C@@H]2OCc2ccc3c(c2)N(CCNC(C)=O)CCC3)cc1,logD,[3],3
same,solubility,[12],124 µg/mL
same,IC50,Renin [7],0.6 nM
COc1ccccc1COCCCOc1ccc([C@@H]2[C@@H](OCc3cc(OC)c4ccccc4c3)CNC[C@H]2OC[C@H](O)CO)cc1,IC50,Renin [1],0.06 nM
same,logD,[13],3.7
same,solubility,[12],24 µg/mL
same,bioavailability,[14],27%
same,IC50,Renin [7],2.2 nM
COc1ccccc1COCCCOc1ccc(N2CCNC[C@@H]2COC2=CC3C(C=C2)CCCN3CCNC(C)=O)cc1 (stereo not given in full),IC50,Renin [1],0.5 nM
COc1ccccc1COCCCOc1ccc(N2C(=O)CNC[C@@H]2COC2=CC3C(C=C2)CCCN3CCNC(C)=O)cc1 (stereo not given in full),IC50,Renin [1],0.29 nM
COCCCN1C(=O)COC2C=CC(OC[C@H]3CNCC(=O)N3c3ccc(OCCCOCc4ccccc4OC)cc3)=CC21 (stereo not given in full),IC50,Renin [1],0.68 nM
COCCCN1C(=O)COC2C=CC(SC[C@H]3CNCC(=O)N3c3ccc(OCCCOCc4ccccc4OC)cc3)=CC21 (stereo not given in full),IC50,Renin [1],0.18 nM
CCc1nc(N)nc(NCCc2ccccc2NC(=O)c2ccc(N)c(OC)c2)c1-c1ccc2c(c1)N(CCCOC)C(=O)C(C)(C)O2,Kd,Renin [8],270 nM
COc1ccccc1COCCCOc1ccc(C2=C(C(=O)N(Cc3cccc(OC)c3C)C3CC3)[C@H]3CNC[C@@H](C2)N3)cc1,IC50,Renin [1],0.62 nM
CCCCNC(=O)[C@H](C)C[C@H](O)[C@@H](N)C[C@@H](CNC(=O)c1cn(CC)c2ccccc12)C(C)C,IC50,Renin [7],4 nM
CC(C)C[C@H](O)[C@H](O)[C@H](CC1CCCCC1)NC(=O)[C@H](Cc1cnc[nH]1)NC(=O)C[C@H](C)c1ccccc1,IC50,Renin [1],11 nM
COc1cccc(OCCCc2cccnc2)c1C(=O)N[C@@H](CC1CCCCC1)[C@@H](O)[C@@H](O)CC(C)C,IC50,Renin [1],39 nM
CCCCNC(=O)[C@H](C)C[C@H](O)[C@@H](N)C[C@H](C)COC(=O)c1cn(Cc2ccccc2)c2ccccc12,IC50,Renin [1],1 nM
CNC[C@H](CC1CCCCC1)NC(=O)N1CCC[C@@H]([C@@H](OCCCOC)c2ccccc2)C1,bioavailability,[4],36%
same,IC50,Renin [7],447 nM
CC[C@H]1CC[C@](O)(CCc2ccccc2)C[C@@H]1C(=O)N[C@@H](CC1CCCCC1)[C@@H](O)[C@@H](O)CC(C)C,IC50,Renin [1],11 nM
COCCCOc1cc(C[C@@H](C[C@H](N)[C@@H](O)C[C@H](C(=O)NCC(C)(C)C(N)=O)C(C)C)C(C)C)ccc1OC,F,Callithrix jacchus,16%
same,IC50,Renin-1,4.5 nM
same,F,Canis familiaris,32%
COc1ccc(CO[C@H]2CNCC[C@@H]2c2ccc(Cl)cc2)cc1,IC50,Renin [1],25000 nM
same,IC50,[15],1500 nM
COc1ccccc1COCCCOc1ccc([C@H]2CCNC[C@@H]2OCc2ccc3c(c2)NCCC3)cc1,IC50,Renin [1],0.21 nM
same,logD,[3],5.6
same,solubility,[12],3 µg/mL
same,IC50,Renin [7],31 nM
COC[C@@H](O)CO[C@@H]1CNC[C@H](OCc2cc(OC)c3ccccc3c2)[C@H]1c1ccc(OCCCOCc2ccccc2OC)cc1,logD,[13],5.7
same,solubility,[12],3 µg/mL
same,bioavailability,[14],6%
same,IC50,Renin [7],8.9 nM
CCc1nc(N)nc(N)c1-c1ccc2c(c1)N(CCNC(C)=O)C(=O)[C@](C)(c1ccccc1)O2,bioavailability,[4],10%
CNC[C@H](CC1CCCCC1)NC(=O)N1CCC[C@@H]([C@@](O)(CCCCOC)c2cccc(Cl)c2)C1,bioavailability,[4],13%
same,IC50,[16],> 30000 nM
same,solubility,[12],> 1000 µg/mL
O=C(C1=C(c2ccc(CCCOc3c(F)ccc(F)c3Cl)cc2)C[C@@H]2CNC[C@H]1N2)N(Cc1cccc(Cl)c1Cl)C1CC1,bioavailability,[17],9%
same,IC50,Cathepsin E,8100 nM
same,logD,[3],> 4.6
same,half-life,[18],10 h
same,IC50,Cathepsin D,2700 nM
same,bioavailability,[19],9%
same,IC50,Cytochrome P450 3A4,> 10000 nM
same,half-life,[20],10 h
same,bioavailability,[14],36%
COc1ccccc1COCCCOc1ccc(N2C(=O)CNC[C@@H]2COCc2cccnc2)cc1,IC50,Renin [1],12 nM
CNC[C@H](CC1CCCCC1)NC(=O)N1CCC[C@@H]([C@@H](OCCNC(=O)OC)c2cccc(Cl)c2)C1,bioavailability,[4],9%
same,IC50,Renin [7],0.8 nM
CCc1nc(N)nc(N)c1-c1ccc2c(c1)N(CCCO)C(=O)C(C)(c1ccccc1)O2 (racemic),IC50,[21],> 30000 nM
same,bioavailability,[4],44%
CN[C@H](CNC(=O)N1CCC[C@@H]([C@@H](OCCNC(=O)OC)c2cccc(Cl)c2)C1)C[C@H]1CCCOC1 [VTP-27999],IC50,Renin [7],< 10 nM
